Earlier results on 1 compound are cited in PMC3986712, “Diclofenac Salts. V. Examples of Polymorphism among Diclofenac Salts with Alkyl-hydroxy Amines Studied by DSC and HSM” (Pharmaceutics, 2010).

The conditions of this data set: free base (counterion), no reference given.

As for `NC(CO)(CO)CO` [TRIS base, Tris-methylol aminomethane], the pKa (commonly the negative logarithm of the acid dissociation constant) was 7.76.
